In patent US20240066027A1 (DOMAIN THERAPEUTICS, priority 2020, published 2024):
pIC50: −log10 of the molar value. Structures can show the parent of a compound that is named as a salt.

What follows are compounds tested against T1, human PAR-2 (hPAR-2) receptor expressed in HEK-293 T cells in an endogenous manner (Homo sapiens, UniProt P55085) (assay: In vitro human PAR-2 functional antagonist activity using calcium assays (Fluo4AM, FLIPR Tetra)). Details: HEK-293 T cells stimulated by an EC80 of the 2-Furoyl-LIGRLO-NH2 peptide after 10 min incubation with compound; 20 concentrations, duplicate, two independent experiments.
T1 construct: human PAR-2 (hPAR-2) receptor expressed in HEK-293 T cells in an endogenous manner; endogenous in cells; host or cells: HEK-293 T cells
T1 sequence (P55085 26-397): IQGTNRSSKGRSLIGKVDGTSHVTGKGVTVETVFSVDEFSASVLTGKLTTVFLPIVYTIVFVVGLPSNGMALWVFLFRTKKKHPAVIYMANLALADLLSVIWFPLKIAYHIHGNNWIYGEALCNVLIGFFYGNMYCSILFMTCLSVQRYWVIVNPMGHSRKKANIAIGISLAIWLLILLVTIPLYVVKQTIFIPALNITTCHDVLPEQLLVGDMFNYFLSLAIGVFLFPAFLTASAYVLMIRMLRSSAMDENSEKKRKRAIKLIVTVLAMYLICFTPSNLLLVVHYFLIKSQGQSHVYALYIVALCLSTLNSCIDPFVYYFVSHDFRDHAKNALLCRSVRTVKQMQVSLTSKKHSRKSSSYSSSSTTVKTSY
Type: cell-based
In short: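 Antagonist activity was taken as the decrease in the calcium response to an EC80 of 2-Furoyl-LIGRLO-NH2, measured over 5 min. The agonist was added after a 10 min compound-alone step on the same plate. The HEK-293 T cells express PAR-2 endogenously and were loaded with 1 μM Fluo4AM. Signals were referenced to buffer and EC80-alone controls.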

Row | pIC50 | Structure (SMILES)
1 | > 7.70 | Cc1cccnc1Cn1cc(-c2ccc(Cl)c(F)c2)c2ccc(C(=O)N3CCN(c4cc(C)c(C(=O)O)c(C)n4)CC3(C)C)nc21 [Example 193, 6-(4-(3-(4-chloro-3-fluorophenyl)-1-((3-methylpyridin-2-yl)methyl)-1H-pyrrolo[2,3-b]pyridine-6-carbonyl)-3,3-dimethylpiperazin-1-yl)-2,4-dimethylnicotinic acid hydrochloride]
2 | > 7.70 | Cc1cc(N2CCN(C(=O)c3ccc4c(-c5ccc(C(F)(F)F)c(F)c5)cn(CC(C)C)c4n3)C(C)(C)C2)nc(C)c1C(=O)O [Example 144, 6-(4-(3-(3-fluoro-4-(trifluoromethyl)phenyl)-1-isobutyl-1H-pyrrolo[2,3-b]pyridine-6-carbonyl)-3,3-dimethylpiperazin-1-yl)-2,4-dimethylnicotinic acid]
3 | 5.00 to 7.70 | CC(C)Cc1nn(-c2ccc(Cl)cc2)c2ccc(C(=O)N3CCNC(=O)C3(C)C)nc12 [Example 85, 4-(1-(4-chlorophenyl)-3-isobutyl-1H-pyrazolo[4,3-b]pyridine-5-carbonyl)-3,3-dimethylpiperazin-2-one]
4 | 5.00 to 7.70 | CC1(C)CN(C(=O)c2ccc(C(=O)O)cn2)CCN1C(=O)c1ccc2c(-c3ccc(Cl)c(F)c3)cn(C(C)(C)C)c2n1 [Example 169, 6-(4-(1-(tert-butyl)-3-(4-chloro-3-fluorophenyl)-1H-pyrrolo[2,3-b]pyridine-6-carbonyl)-3,3-dimethylpiperazine-1-carbonyl)nicotinic acid]
5 | 5.00 to 7.70 | CC(C)(C)n1cc(-c2ccc(Cl)c(F)c2)c2ccc(C(=O)N3CCS(=O)(=O)CC3)nc21 [Example 214, (1-(tert-butyl)-3-(4-chloro-3-fluorophenyl)-1H-pyrrolo[2,3-b]pyridin-6-yl)(1,1-dioxidothiomorpholino)methanone]
6 | > 7.70 | CC(C)Cn1cc(-c2ccc(Cl)c(Cl)c2)c2ccc(C(=O)N3CCNC(=O)C3(C)C)nc21 [Example 107, 4-(3-(3,4-dichlorophenyl)-1-isobutyl-1H-pyrrolo[2,3-b]pyridine-6-carbonyl)-3,3-dimethylpiperazin-2-one]
7 | > 7.70 | COCC(C)(C)n1cc(-c2ccc(Cl)c(F)c2)c2ccc(C(=O)N3CCNC(=O)C3(C)C)nc21 [Example 151, 4-(3-(4-chloro-3-fluorophenyl)-1-(1-methoxy-2-methylpropan-2-yl)-1H-pyrrolo[2,3-b]pyridine-6-carbonyl)-3,3-dimethylpiperazin-2-one]
8 | 5.00 to 7.70 | CC(C)Cc1nc(-c2ccc(Cl)cc2)n2ccc(C(=O)N3CCN(c4ccc(C(=O)O)cn4)CC3(C)C)cc12 [Example 219, 6-(4-(3-(4-chlorophenyl)-1-isobutylimidazo[1,5-a]pyridine-7-carbonyl)-3,3-dimethylpiperazin-1-yl)nicotinic acid]
9 | < 5.00 | O=C(c1ccc2c(-c3ccc(Cl)c(F)c3)cn(CC(F)(F)F)c2n1)N1CC2CCC(C1)O2 [Example 33, (8-oxa-3-azabicyclo[3.2.1]octan-3-yl)(3-(4-chloro-3-fluorophenyl)-1-(2,2,2-trifluoroethyl)-1H-pyrrolo[2,3-b]pyridin-6-yl)methanone]
10 | < 5.00 | Cc1cc(N[C@@H]2CCN(C(=O)c3ccc4c(-c5ccc(Cl)c(F)c5)cn(C(C)(C)C)c4n3)C2)nc(C)c1C(=O)O [Example 153, (R)-6-((1-(1-(tert-butyl)-3-(4-chloro-3-fluorophenyl)-1H-pyrrolo[2,3-b]pyridine-6-carbonyl)pyrrolidin-3-yl)amino)-2,4-dimethylnicotinic acid]
11 | > 7.70 | COCC(COC)n1cc(-c2ccc(Cl)c(F)c2)c2ccc(C(=O)N3CCN(c4cc(C)c(C(=O)O)c(C)n4)CC3(C)C)nc21 [Example 166, 6-(4-(3-(4-chloro-3-fluorophenyl)-1-(1,3-dimethoxypropan-2-yl)-1H-pyrrolo[2,3-b]pyridine-6-carbonyl)-3,3-dimethylpiperazin-1-yl)-2,4-dimethylnicotinic acid]
12 | > 7.70 | CN(C)C(=O)c1ccc(N2CCN(C(=O)c3ccc4c(-c5ccc(Cl)c(F)c5)cn(C(C)(C)C)c4n3)C(C)(C)C2)nc1 [Example 139, 6-(4-(1-(tert-butyl)-3-(4-chloro-3-fluorophenyl)-1H-pyrrolo[2,3-b]pyridine-6-carbonyl)-3,3-dimethylpiperazin-1-yl)-N,N-dimethylnicotinamide]
13 | 5.00 to 7.70 | CC1(C)C(=O)NCCN1C(=O)c1ccc2c(-c3ccc(Cl)c(F)c3)cn(Cc3ccncc3)c2n1 [Example 120, 4-(3-(4-chloro-3-fluorophenyl)-1-(pyridin-4-ylmethyl)-1H-pyrrolo[2,3-b]pyridine-6-carbonyl)-3,3-dimethylpiperazin-2-one]
14 | > 7.70 | Cc1cc(N2CCN(C(=O)c3ccc4c(-c5ccc(Cl)c(F)c5)cn(C(C)(C)C)c4n3)C(C)(C)C2)nc(C)c1C(=O)O [Example 26, 6-(4-(1-(tert-butyl)-3-(4-chloro-3-fluorophenyl)-1H-pyrrolo[2,3-b]pyridine-6-carbonyl)-3,3-dimethylpiperazin-1-yl)-2,4-dimethylnicotinic acid]
15 | < 5.00 | O=C(c1ccc2c(-c3ccc(Cl)c(F)c3)cn(CC(F)(F)F)c2n1)N1CCCOCC1 [Example 32, (3-(4-chloro-3-fluorophenyl)-1-(2,2,2-trifluoroethyl)-1H-pyrrolo[2,3-b]pyridin-6-yl)(1,4-oxazepan-4-yl)methanone]
16 | 5.00 to 7.70 | Cc1cc(N(C)[C@@H]2CCN(C(=O)c3ccc4c(-c5ccc(Cl)c(F)c5)cn(C(C)(C)C)c4n3)C2)nc(C)c1C(=O)O [Example 155, (R)-6-((1-(1-(tert-butyl)-3-(4-chloro-3-fluorophenyl)-1H-pyrrolo[2,3-b]pyridine-6-carbonyl)pyrrolidin-3-yl)(methyl)amino)-2,4-dimethylnicotinic acid]
17 | 5.00 to 7.70 | CC(C)Cc1nn(-c2cccc(Cl)c2)c2ccc(C(=O)N3CCNC(=O)C3(C)C)nc12 [Example 67, 4-(1-(3-chlorophenyl)-3-isobutyl-1H-pyrazolo[4,3-b]pyridine-5-carbonyl)-3,3-dimethylpiperazin-2-one]
18 | < 5.00 | CC(C)Cc1nn(-c2ccc(Cl)c(F)c2)c2ccc(C(=O)N3CCC(C(=O)O)C(C)(C)C3)nc12 (stereo not drawn) [Example 69, 1-(1-(4-chloro-3-fluorophenyl)-3-isobutyl-1H-pyrazolo[4,3-b]pyridine-5-carbonyl)-3,3-dimethylpiperidine-4-carboxylic acid]
19 | 5.00 to 7.70 | CC(C)(C)n1cc(-c2ccc(Cl)c(F)c2)c2ccc(C(=O)N3CCC4(NC(=O)NC4=O)C(F)(F)C3)nc21 (stereo not drawn) [Example 201, 8-(1-(tert-butyl)-3-(4-chloro-3-fluorophenyl)-1H-pyrrolo[2,3-b]pyridine-6-carbonyl)-6,6-difluoro-1,3,8-triazaspiro[4.5]decane-2,4-dione]
20 | 5.00 to 7.70 | CN(C)C(=O)CC1CCN(C(=O)c2ccc3c(-c4ccc(Cl)c(F)c4)cn(C(C)(C)C)c3n2)CC1 [Example 164, 2-(1-(1-(tert-butyl)-3-(4-chloro-3-fluorophenyl)-1H-pyrrolo[2,3-b]pyridine-6-carbonyl)piperidin-4-yl)-N,N-dimethylacetamide]
21 | 5.00 to 7.70 | COC(=O)CC1CCN(C(=O)c2ccc3c(-c4ccc(Cl)c(F)c4)cn(CC(C)C)c3c2)CC1 [Example 203, methyl 2-(1-(3-(4-chloro-3-fluorophenyl)-1-isobutyl-1H-indole-6-carbonyl)piperidin-4-yl)acetate]
